Reference: patent publication US7423157B2, “Substituted benzimidazoles and their use for inducing apoptosis” (Basilea Pharmaceutica AG, priority 2004, dated 2008)

What was measured:
HeLa [1] = test: Hoechst 33342 nuclear staining, HeLa; assay type: cell-based, human; conditions: 48 h
Protocol: (§1) This assay is performed in 96 well tissue culture plates. Appropriate number of cells (adherent cells: 3-5*10^3, suspension cells: 8-10*10^3) are being seeded out in 80 μl complete medium. Adherent cells are incubated for 24 h for proper spreading out before addition of test compounds while suspension cells are immediately treated with test compounds after seeding out. The test compounds are added in 20 μl complete medium containing max 5% DMSO. The final compound concentrations in the assays are 10 μM, 3 μM, 1 μM and 0.3 μM, respectively. […] The assay plates are then further incubated for 30 minutes and subsequently analyzed with a standard inverted fluorescence microscope.
(§2) The readout allows the determination of the fraction of apoptotic nuclei as well as other morphological criteria specific for apoptosis as a function of the treatment. The following scores are used: 0 relating to no activity, 1 relating to weak activity comprising less than 50% of the cells and score 2 relating to strong activity comprising more than 50% of the cells.

Jurkat [2] = test: MTS proliferation assay, Jurkat; assay type: cell-based, human; conditions: Homo sapiens, 72 h incubation
Protocol: (§3) The assay is performed in 96 well tissue culture plates. The cells (range: 1.5*10^3-10^4) are seeded out in 80 μl complete medium 24 h prior to compound treatment. The test compounds are added in 20 μl complete medium containing max 5% DMSO. The final compound concentrations in the assays are 10 μM, 3 μM, 1 μM and 0.3 μM, respectively. The assay plates are incubated for 72 h at culture conditions. The MTS reagent is prepared according to the manufacturer's protocol (Promega G1111). 20 μl MTS reagent are added to each well, the assay plates are quickly spun and incubated for another 3 h at culture conditions. Subsequently, the plates are shortly shaked and absorption measured with a microplate-reader at 492 nm.

H460 = test: Hoechst 33342 nuclear staining, H460; assay type: cell-based, human; conditions: H460, 48 h
Protocol: as §1, §2

MRC5 = test: Hoechst 33342 nuclear staining, MRC5; assay type: cell-based; set-up: key: 0 = no activity, 1 = weak (<50% of cells), 2 = strong (>50% of cells); conditions: MRC5, 48 h
Protocol: as §1, §2

PBLs = test: Hoechst 33342 nuclear staining, PBLs; assay type: cell-based; set-up: key: 0 = no activity, 1 = weak (<50% of cells), 2 = strong (>50% of cells); conditions: 48 h
Protocol: as §1, §2

HeLa [3] = test: MTS proliferation assay, HeLa; assay type: cell-based, human; conditions: Homo sapiens, 72 h incubation
Protocol: as §3

Jurkat [4] = test: Hoechst 33342 nuclear staining, Jurkat; assay type: cell-based, human; conditions: 48 h
Protocol: as §1, §2

Jily = test: Hoechst 33342 nuclear staining, Jily; assay type: cell-based; conditions: 48 h
Protocol: as §1, §2

IC50 (Jurkat [2]): < 0.1 µM
IC50 (HeLa [3]): < 0.1 µM
Structure (SMILES): Cc1ccc(C(=O)Cn2c(-n3ncnc3N)nc3ccccc32)cc1C [Example 1, 3-Amino-2-(1-[3,4-dimethylphenylcarbonylmethyl]benzimidazol-2-yl)-1,2,4-triazole]
Hoechst 33342 nuclear staining score (HeLa [1]; conc. 0.3 (μM)): 2 (score 2 relating to strong activity comprising more than 50% of the cells)
Hoechst 33342 nuclear staining score (HeLa [1]; conc. 1 (μM)): 2 (score 2 relating to strong activity comprising more than 50% of the cells)
Hoechst 33342 nuclear staining score (HeLa [1]; conc. 3 (μM)): 2 (score 2 relating to strong activity comprising more than 50% of the cells)
Hoechst 33342 nuclear staining score (HeLa [1]; conc. 10 (μM)): 2 (score 2 relating to strong activity comprising more than 50% of the cells)
Hoechst 33342 nuclear staining score (H460; conc. 0.3 (μM)): 2 (score 2 relating to strong activity comprising more than 50% of the cells)
Hoechst 33342 nuclear staining score (H460; conc. 1 (μM)): 2 (score 2 relating to strong activity comprising more than 50% of the cells)
Hoechst 33342 nuclear staining score (H460; conc. 3 (μM)): 2 (score 2 relating to strong activity comprising more than 50% of the cells)
Hoechst 33342 nuclear staining score (H460; conc. 10 (μM)): 2 (score 2 relating to strong activity comprising more than 50% of the cells)
Hoechst 33342 nuclear staining score (MRC5; conc. 0.3 (μM)): 1 (1 relating to weak activity comprising less than 50% of the cells)
Hoechst 33342 nuclear staining score (MRC5; conc. 1 (μM)): 2 (score 2 relating to strong activity comprising more than 50% of the cells)
Hoechst 33342 nuclear staining score (MRC5; conc. 3 (μM)): 2 (score 2 relating to strong activity comprising more than 50% of the cells)
Hoechst 33342 nuclear staining score (MRC5; conc. 10 (μM)): 2 (score 2 relating to strong activity comprising more than 50% of the cells)
Hoechst 33342 nuclear staining score (PBLs; conc. 0.3 (μM)): 0
Hoechst 33342 nuclear staining score (PBLs; conc. 1 (μM)): 0
Hoechst 33342 nuclear staining score (PBLs; conc. 3 (μM)): 0
Hoechst 33342 nuclear staining score (PBLs; conc. 10 (μM)): 0
Hoechst 33342 nuclear staining score (Jurkat [4]; conc. 0.3 (μM)): 2 (score 2 relating to strong activity comprising more than 50% of the cells)
Hoechst 33342 nuclear staining score (Jurkat [4]; conc. 1 (μM)): 2 (score 2 relating to strong activity comprising more than 50% of the cells)
Hoechst 33342 nuclear staining score (Jurkat [4]; conc. 3 (μM)): 2 (score 2 relating to strong activity comprising more than 50% of the cells)
Hoechst 33342 nuclear staining score (Jurkat [4]; conc. 10 (μM)): 2 (score 2 relating to strong activity comprising more than 50% of the cells)
Hoechst 33342 nuclear staining score (Jily; conc. 0.3 (μM)): 2 (score 2 relating to strong activity comprising more than 50% of the cells)
Hoechst 33342 nuclear staining score (Jily; conc. 1 (μM)): 2 (score 2 relating to strong activity comprising more than 50% of the cells)
Hoechst 33342 nuclear staining score (Jily; conc. 3 (μM)): 2 (score 2 relating to strong activity comprising more than 50% of the cells)
Hoechst 33342 nuclear staining score (Jily; conc. 10 (μM)): 2 (score 2 relating to strong activity comprising more than 50% of the cells)
